From the supplement of paper PMC4862054

test system: CAL-51; assay: normalised viability (% of control), CellTiter-Blue; higher = more viable cells (about 100 = DMSO control); conditions: 100 nM; incubation time: 72 h
In short: (§1)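 Seeded at 20 µl suspension per well onto compound-loaded 384-well plates, breast cancer cell lines were incubated 72 h. CellTiter-Blue fluorescence at 560/590 nm was then read, with each plate normalised to vehicle (100) and a positive kill control (0). Normalised viability is reported at a single listed concentration of the series.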

| SMILES | normalised viability |
| --- | --- |
| CC(C)C(=O)Nc1ccc([N+](=O)[O-])c(C(F)(F)F)c1 [Flutamide] | 106% |
| O=NN(CCCl)C(=O)NC1CCCCC1 [Lomustine] | 110% |

same assay, conditions: 300 nM; incubation time: 72 h

| SMILES | normalised viability |
| --- | --- |
| NC(=O)NO [Hydroxyurea] | 107% |

same assay, conditions: 1000 nM; incubation time: 72 h

| SMILES | normalised viability |
| --- | --- |
| NC(=O)NO [Hydroxyurea] | 104% |

test system: CAL-85-1; assay: as above; conditions: 0.3 nM; incubation time: 72 h
In short: as §1

| SMILES | normalised viability |
| --- | --- |
| COc1cc2c(Oc3ccc(NC(=O)C4(C(=O)Nc5ccc(F)cc5)CC4)cc3F)ccnc2cc1OCCCN1CCOCC1 [Foretinib] | 95% |
| O=C(O)CC[C@H]1CC[C@@](c2cc(F)ccc2F)(S(=O)(=O)c2ccc(Cl)cc2)CC1 [MK-0752] | 98.7% |

same assay, conditions: 3 nM; incubation time: 72 h

| SMILES | normalised viability |
| --- | --- |
| Nc1nc(Cl)nc2c1ncn2[C@@H]1O[C@H](CO)[C@@H](O)[C@@H]1F [Clofarabine] | 95.8% |
| CCN(CC)CCOc1ccc(C(=C(Cl)c2ccccc2)c2ccccc2)cc1 [Clomifene] | 91.3% |
| C[C@@H]1C[C@H]2[C@@H]3CCC4=CC(=O)C=C[C@]4(C)[C@@]3(F)[C@@H](O)C[C@]2(C)[C@@]1(O)C(=O)CO [Dexamethasone] | 102% |
| CC(C)C(=O)Nc1ccc([N+](=O)[O-])c(C(F)(F)F)c1 [Flutamide] | 101% |
| COc1cc2c(Oc3ccc(NC(=O)C4(C(=O)Nc5ccc(F)cc5)CC4)cc3F)ccnc2cc1OCCCN1CCOCC1 [Foretinib] | 86.3% |
| O=NN(CCCl)C(=O)NC1CCCCC1 [Lomustine] | 104% |
| O=C(O)CC[C@H]1CC[C@@](c2cc(F)ccc2F)(S(=O)(=O)c2ccc(Cl)cc2)CC1 [MK-0752] | 82.4% |

same assay, conditions: 10 nM; incubation time: 72 h

| SMILES | normalised viability |
| --- | --- |
| COc1cc2c(Oc3ccc(NC(=O)C4(C(=O)Nc5ccc(F)cc5)CC4)cc3F)ccnc2cc1OCCCN1CCOCC1 [Foretinib] | 95.8% |
| O=C(O)CC[C@H]1CC[C@@](c2cc(F)ccc2F)(S(=O)(=O)c2ccc(Cl)cc2)CC1 [MK-0752] | 103% |

same assay, conditions: 30 nM; incubation time: 72 h

| SMILES | normalised viability |
| --- | --- |
| Nc1nc(Cl)nc2c1ncn2[C@@H]1O[C@H](CO)[C@@H](O)[C@@H]1F [Clofarabine] | 90.4% |
| CCN(CC)CCOc1ccc(C(=C(Cl)c2ccccc2)c2ccccc2)cc1 [Clomifene] | 92.4% |
| C[C@@H]1C[C@H]2[C@@H]3CCC4=CC(=O)C=C[C@]4(C)[C@@]3(F)[C@@H](O)C[C@]2(C)[C@@]1(O)C(=O)CO [Dexamethasone] | 93.1% |
| CC(C)C(=O)Nc1ccc([N+](=O)[O-])c(C(F)(F)F)c1 [Flutamide] | 91.8% |
| NC(=O)NO [Hydroxyurea] | 104% |
| O=NN(CCCl)C(=O)NC1CCCCC1 [Lomustine] | 88% |

same assay, conditions: 100 nM; incubation time: 72 h

| SMILES | normalised viability |
| --- | --- |
| Nc1nc(Cl)nc2c1ncn2[C@@H]1O[C@H](CO)[C@@H](O)[C@@H]1F [Clofarabine] | 82.6% |
| CCN(CC)CCOc1ccc(C(=C(Cl)c2ccccc2)c2ccccc2)cc1 [Clomifene] | 91.2% |
| C[C@@H]1C[C@H]2[C@@H]3CCC4=CC(=O)C=C[C@]4(C)[C@@]3(F)[C@@H](O)C[C@]2(C)[C@@]1(O)C(=O)CO [Dexamethasone] | 110% |
| CC(C)C(=O)Nc1ccc([N+](=O)[O-])c(C(F)(F)F)c1 [Flutamide] | 101% |
| O=NN(CCCl)C(=O)NC1CCCCC1 [Lomustine] | 104% |

same assay, conditions: 300 nM; incubation time: 72 h

| SMILES | normalised viability |
| --- | --- |
| NC(=O)NO [Hydroxyurea] | 93.2% |

same assay, conditions: 1000 nM; incubation time: 72 h

| SMILES | normalised viability |
| --- | --- |
| NC(=O)NO [Hydroxyurea] | 105% |

test system: DU-4475; assay: as above; conditions: 0.3 nM; incubation time: 72 h
In short: as §1

| SMILES | normalised viability |
| --- | --- |
| COc1cc2c(Oc3ccc(NC(=O)C4(C(=O)Nc5ccc(F)cc5)CC4)cc3F)ccnc2cc1OCCCN1CCOCC1 [Foretinib] | 104% |
| O=C(O)CC[C@H]1CC[C@@](c2cc(F)ccc2F)(S(=O)(=O)c2ccc(Cl)cc2)CC1 [MK-0752] | 115% |

same assay, conditions: 3 nM; incubation time: 72 h

| SMILES | normalised viability |
| --- | --- |
| Nc1nc(Cl)nc2c1ncn2[C@@H]1O[C@H](CO)[C@@H](O)[C@@H]1F [Clofarabine] | 90.6% |
| CCN(CC)CCOc1ccc(C(=C(Cl)c2ccccc2)c2ccccc2)cc1 [Clomifene] | 101% |
| C[C@@H]1C[C@H]2[C@@H]3CCC4=CC(=O)C=C[C@]4(C)[C@@]3(F)[C@@H](O)C[C@]2(C)[C@@]1(O)C(=O)CO [Dexamethasone] | 90% |
| CC(C)C(=O)Nc1ccc([N+](=O)[O-])c(C(F)(F)F)c1 [Flutamide] | 111% |
| COc1cc2c(Oc3ccc(NC(=O)C4(C(=O)Nc5ccc(F)cc5)CC4)cc3F)ccnc2cc1OCCCN1CCOCC1 [Foretinib] | 91.8% |
| O=NN(CCCl)C(=O)NC1CCCCC1 [Lomustine] | 117% |
| O=C(O)CC[C@H]1CC[C@@](c2cc(F)ccc2F)(S(=O)(=O)c2ccc(Cl)cc2)CC1 [MK-0752] | 91.5% |

same assay, conditions: 10 nM; incubation time: 72 h

| SMILES | normalised viability |
| --- | --- |
| COc1cc2c(Oc3ccc(NC(=O)C4(C(=O)Nc5ccc(F)cc5)CC4)cc3F)ccnc2cc1OCCCN1CCOCC1 [Foretinib] | 105% |
| O=C(O)CC[C@H]1CC[C@@](c2cc(F)ccc2F)(S(=O)(=O)c2ccc(Cl)cc2)CC1 [MK-0752] | 101% |

same assay, conditions: 30 nM; incubation time: 72 h

| SMILES | normalised viability |
| --- | --- |
| Nc1nc(Cl)nc2c1ncn2[C@@H]1O[C@H](CO)[C@@H](O)[C@@H]1F [Clofarabine] | 92.8% |
| CCN(CC)CCOc1ccc(C(=C(Cl)c2ccccc2)c2ccccc2)cc1 [Clomifene] | 98.4% |
| C[C@@H]1C[C@H]2[C@@H]3CCC4=CC(=O)C=C[C@]4(C)[C@@]3(F)[C@@H](O)C[C@]2(C)[C@@]1(O)C(=O)CO [Dexamethasone] | 86.9% |
| CC(C)C(=O)Nc1ccc([N+](=O)[O-])c(C(F)(F)F)c1 [Flutamide] | 85.1% |
| NC(=O)NO [Hydroxyurea] | 122% |
| O=NN(CCCl)C(=O)NC1CCCCC1 [Lomustine] | 98.7% |

same assay, conditions: 100 nM; incubation time: 72 h

| SMILES | normalised viability |
| --- | --- |
| Nc1nc(Cl)nc2c1ncn2[C@@H]1O[C@H](CO)[C@@H](O)[C@@H]1F [Clofarabine] | 94.4% |
| CCN(CC)CCOc1ccc(C(=C(Cl)c2ccccc2)c2ccccc2)cc1 [Clomifene] | 111% |
| C[C@@H]1C[C@H]2[C@@H]3CCC4=CC(=O)C=C[C@]4(C)[C@@]3(F)[C@@H](O)C[C@]2(C)[C@@]1(O)C(=O)CO [Dexamethasone] | 98.3% |
| CC(C)C(=O)Nc1ccc([N+](=O)[O-])c(C(F)(F)F)c1 [Flutamide] | 97.2% |
| O=NN(CCCl)C(=O)NC1CCCCC1 [Lomustine] | 88.2% |

same assay, conditions: 300 nM; incubation time: 72 h

| SMILES | normalised viability |
| --- | --- |
| NC(=O)NO [Hydroxyurea] | 115% |

same assay, conditions: 1000 nM; incubation time: 72 h

| SMILES | normalised viability |
| --- | --- |
| NC(=O)NO [Hydroxyurea] | 98.3% |

test system: HCC1143; assay: as above; conditions: 1 nM; incubation time: 72 h
In short: as §1

| SMILES | normalised viability |
| --- | --- |
| COc1cc2c(Oc3ccc(NC(=O)C4(C(=O)Nc5ccc(F)cc5)CC4)cc3F)ccnc2cc1OCCCN1CCOCC1 [Foretinib] | 104% |
| O=C(O)CC[C@H]1CC[C@@](c2cc(F)ccc2F)(S(=O)(=O)c2ccc(Cl)cc2)CC1 [MK-0752] | 81.5% |

same assay, conditions: 10 nM; incubation time: 72 h

| SMILES | normalised viability |
| --- | --- |
| Nc1nc(Cl)nc2c1ncn2[C@@H]1O[C@H](CO)[C@@H](O)[C@@H]1F [Clofarabine] | 74.5% |
| CCN(CC)CCOc1ccc(C(=C(Cl)c2ccccc2)c2ccccc2)cc1 [Clomifene] | 86.2% |
| C[C@@H]1C[C@H]2[C@@H]3CCC4=CC(=O)C=C[C@]4(C)[C@@]3(F)[C@@H](O)C[C@]2(C)[C@@]1(O)C(=O)CO [Dexamethasone] | 76.5% |
| CC(C)C(=O)Nc1ccc([N+](=O)[O-])c(C(F)(F)F)c1 [Flutamide] | 82% |
